Where two headings read alike, the source gives them in different places.
Key:
[1] = system: CYP; details: for fraction of 125I-ODV / peak of 125I-ODV metabolite: NADPH [+]
Method: Animal studies were approved by the Animal Care Committee at Kanazawa University (AP-173851) and were conducted in accordance with international standards for animal welfare and institutional guidelines. For preparation of the pooled mouse liver homogenates (MLH), three six-week-old ddY mice (Japan SLC, Tokyo, Japan) were euthanized under anesthesia with isoflurane, and the removed livers were weighed. After adding Krebs–Ringer phosphate buffer (pH 7.4), the pooled livers were homogenized with an ultrasonic homogenizer (SONIFIER250, Branson, MO, USA), and the protein content was measured according to the bicinchoninic acid method. The pooled MLH was stored at −80 °C.
For analysis of NADPH-mediated metabolism of ^125I-ODV, NADPH was used as an energy source of CYP-mediated metabolism. Adding an NADPH-generating system produced a state in which CYP was active. NADPH-mediated metabolism of ^125I-ODV was examined in a mixture consisting of an NADPH-generating system (0.5 mM β-NADP^+, 5 mM MgCl2, 5 mM G6P, and 1 U/mL G6PD), 100 mM sodium potassium phosphate buffer (pH 7.4), 50 μM EDTA disodium salt, and 1000 μg protein/20 μL pooled MLH in a final volume of 250 μL (NADPH [+]). […] The samples were incubated at 37 °C for 5, 15, 30, and 60 min with gentle shaking, ethanol was added to stop the reactions, and the samples were centrifuged at 18,000 g for 5 min. The supernatants in each sample were analyzed by HPLC. The mobile phase consisted of 70% 20 mM KH2PO4 buffer (pH 4.0) and 30% acetonitrile at a flow rate of 1.0 mL/min (n = 3).

[2] = system: CYP2D6; details: CYP2D6-inhibited mice (paroxetine 30 mg/kg i.p. 60 min before), i.v.
Method: ^125I-ODV was prepared to a radioactive concentration of 30 MBq/mL by the addition of saline. For metabolite analysis in CYP-inhibited mice, we produced model mice with reduced CYP3A4 or CYP2D6 activity by selective inhibition using ketoconazole or paroxetine. CYP3A4-inhibited mice were injected intraperitoneally with 50 mg/kg of ketoconazole at 60 min before injection of ^125I-ODV, and CYP2D6-inhibited mice were injected intraperitoneally with 30 mg/kg of paroxetine at 60 min before injection of ^125I-ODV. Each of three mice was administered ^125I-ODV via the tail vein (3.0 MBq/100 µL/mouse). At 30 min, the three fasted mice were euthanized under isoflurane, and each gallbladder was collected. The radioactive products in bile were analyzed by TLC using methanol/acetate at a ratio of 100:1. Bile was directly spotted onto a TLC plate.
To examine the biological distribution in CYP-inhibited mice, we produced model mice in the same way as for the analysis of metabolism in bile. At 5, 15, 30, and 60 min after ^125I-ODV injection, mice were euthanized under isoflurane (n = 4), and the same tissues were collected and quantified.

[3] = up to seven days at 4 °C
Method: The stability of ^125I-ODV was analyzed by TLC. The elution of ^125I-ODVwas spotted onto a silica gel TLC plate 60 F254 (Merck, Darmstadt, Germany). The TLC plate and the TLC spots were developed using methanol/acetate at a ratio of 100:1. After development and complete drying, the TLC plates were cut into 21 fractions, and the radiography associated with each fraction was quantified using a γ-ray counter (AccuFLEXγ 7000, Aloka, Tokyo, Japan). The fractional ratios of ^125I^− and ^125I-ODV were calculated by dividing the radioactive counts for each fraction by the total radioactivity count.

CN(C)CC(c1ccc(O)c([125I])c1)C1(O)CCCCC1 (centres unmarked) [^125I-ODV, iodine-125-labeled O-desmethylvenlafaxine]
fraction of 125I-ODV ([1]; end value of the decrease): ~54%
peak of 125I-ODV metabolite ([1]; end value of the increase): ~46%
fraction of 125I-ODV ([1]; start value of the decrease): about 85%
peak of 125I-ODV metabolite ([1]; start value of the increase): about 0%
percentage of metabolite ([1]; NADPH [−], 37 °C, 15 min): 1.52%
Biological distribution, Blood ([2]; 5 min): 1.83 %ID/g
Biological distribution, Brain ([2]; 5 min): 0.79 %ID/g
Biological distribution, Gallbladder ([2]; 5 min): 1.59 %ID/g
Biological distribution, Heart ([2]; 5 min): 5.19 %ID/g
Biological distribution, Kidney ([2]; 5 min): 19.94 %ID/g
Biological distribution, Large intestines ([2]; 5 min): 1.12 %ID/organ
Biological distribution, Liver ([2]; 5 min): 7.19 %ID/g
Biological distribution, Lung ([2]; 5 min): 22.13 %ID/g
Biological distribution, Pancreas ([2]; 5 min): 6.02 %ID/g
Biological distribution, Small intestines ([2]; 5 min): 7.24 %ID/organ
Biological distribution, Spleen ([2]; 5 min): 4.62 %ID/g
Biological distribution, Stomach ([2]; 5 min): 1.77 %ID/organ
Biological distribution, Thyroid ([2]; 5 min): 0.05 %ID/organ
Biological distribution, Urine ([2]; 5 min): 0.33 %ID/organ
Biological distribution, Blood ([2]; 15 min): 1.59 %ID/g
Biological distribution, Brain ([2]; 15 min): 0.82 %ID/g
Biological distribution, Gallbladder ([2]; 15 min): 10.66 %ID/g
Biological distribution, Heart ([2]; 15 min): 2.87 %ID/g
Biological distribution, Kidney ([2]; 15 min): 17.13 %ID/g
Biological distribution, Large intestines ([2]; 15 min): 0.93 %ID/organ
Biological distribution, Liver ([2]; 15 min): 5.56 %ID/g
Biological distribution, Lung ([2]; 15 min): 11.96 %ID/g
Biological distribution, Pancreas ([2]; 15 min): 5.71 %ID/g
Biological distribution, Small intestines ([2]; 15 min): 5.64 %ID/organ
Biological distribution, Spleen ([2]; 15 min): 4.97 %ID/g
Biological distribution, Stomach ([2]; 15 min): 2.40 %ID/organ
Biological distribution, Thyroid ([2]; 15 min): 0.04 %ID/organ
Biological distribution, Urine ([2]; 15 min): 6.18 %ID/organ
Biological distribution, Blood ([2]; 30 min): 1.12 %ID/g
Biological distribution, Brain ([2]; 30 min): 0.71 %ID/g
Biological distribution, Gallbladder ([2]; 30 min): 21.66 %ID/g
Biological distribution, Heart ([2]; 30 min): 1.47 %ID/g
Biological distribution, Kidney ([2]; 30 min): 15.90 %ID/g
Biological distribution, Large intestines ([2]; 30 min): 0.74 %ID/organ
Biological distribution, Liver ([2]; 30 min): 5.08 %ID/g
Biological distribution, Lung ([2]; 30 min): 7.77 %ID/g
Biological distribution, Pancreas ([2]; 30 min): 3.94 %ID/g
Biological distribution, Small intestines ([2]; 30 min): 10.30 %ID/organ
Biological distribution, Spleen ([2]; 30 min): 2.88 %ID/g
Biological distribution, Stomach ([2]; 30 min): 3.20 %ID/organ
Biological distribution, Thyroid ([2]; 30 min): 0.05 %ID/organ
Biological distribution, Urine ([2]; 30 min): 22.96 %ID/organ
Biological distribution, Blood ([2]; 60 min): 0.67 %ID/g
Biological distribution, Brain ([2]; 60 min): 0.58 %ID/g
Biological distribution, Gallbladder ([2]; 60 min): 26.70 %ID/g
Biological distribution, Heart ([2]; 60 min): 0.62 %ID/g
Biological distribution, Kidney ([2]; 60 min): 8.33 %ID/g
Biological distribution, Large intestines ([2]; 60 min): 0.67 %ID/organ
Biological distribution, Liver ([2]; 60 min): 1.75 %ID/g
Biological distribution, Lung ([2]; 60 min): 3.15 %ID/g
Biological distribution, Pancreas ([2]; 60 min): 2.51 %ID/g
Biological distribution, Small intestines ([2]; 60 min): 10.85 %ID/organ
Biological distribution, Spleen ([2]; 60 min): 1.46 %ID/g
Biological distribution, Stomach ([2]; 60 min): 2.20 %ID/organ
Biological distribution, Thyroid ([2]; 60 min): 0.10 %ID/organ
Biological distribution, Urine ([2]; 60 min): 33.92 %ID/organ
radiochemical purity [3]: more than 98%

From paper PMC9569593, “Measurement of Hepatic CYP3A4 and 2D6 Activity Using Radioiodine-Labeled O-Desmethylvenlafaxine” (International Journal of Molecular Sciences, 2022)
